Earlier results as cited in patent US7632832B2, “CGRP receptor antagonists” (Merck & Co., Inc., priority 2005, dated 2009).

Test system: CGRP
Conditions: marmoset, electrical stimulation of the trigeminal ganglion (Doods et al. 2000)

NCCCC[C@H](NC(=O)[C@@H](Cc1cc(Br)c(O)c(Br)c1)NC(=O)N1CCC(N2Cc3ccccc3NC2=O)CC1)C(=O)N1CCN(c2ccncc2)CC1 [BIBN4096BS]
effect on increase in facial blood flow: blocked
